Measurements from patent publication EP0845217A1, “Inhibiting undesirable taste in oral compositions” (priority 1996, dated 1998).

What was measured:
mud puppy taste cells = experiment: Response of isolated taste cells to bitter-tasting compounds, intracellular calcium fluorescence; format: cell-based
Procedure: Taste cells are isolated from the mud puppy, a type of salamander (S. C. Kinnamon, et al, Chemical Senses 13: 355 - 366, 1988). Briefly, a fresh mud puppy tongue is incubated with collagenase, the non-gustatory epithelium is peeled off the surface, and individual taste buds are gently drawn into a micropipette using a dissecting microscope at 50X magnification. The taste buds are plated into small vessels, that are coated with Cell-Tak, containing culture media. The taste cells can remain viable up to 18 days and maintain normal functions (C. Ruiz, et al, Experimental Cell Biology of Taste and Olfaction, Current Techniques and Protocols, A. I. Spielman and J. G. Brand, eds., CRC Press, 1995, pp. 79 - 84). The taste cells are labeled intracellularly with a marker compound that fluoresces in a dose-dependent fashion to calcium ion concentration. Since an increase in the intracellular calcium ion concentration is one of the last steps in converging biochemical signal transduction pathways for bitterness, the fluorescent marker correlates with taste cell response to bitterness (D. Restrepo, et al, Experimental Cell Biology of Taste and Olfaction, Current Techniques and Protocols, A. I. Spielman and J. G. Brand, eds., CRC Press, 1995, pp. 387 - 398). Labeled taste cells are observed microscopically using image analysis software. Using a micropipette, taste cells are exposed to bitter-tasting compounds by adding the compounds in media near the taste cell. Cells that respond to the bitter-tasting compound show an increase in fluorescence intensity. Bitter inhibitors are tested by adding them to the test solution with the bitter-tasting compound. The response of individual taste cells to bitter-tasting compounds and to bitter-tasting compounds plus inhibitor are monitored by measuring the fluorescent intensity using a microscope. Images are stored electronically and image analysis software is used to analyze the data (D. Restrepo, et al, Biophysical Journal 64: 1961 - 1966, 1993).

[1] = system: purified protein tyrosine phosphatase; experiment: Purified protein tyrosine phosphatase, dephosphorylation of phosphotyrosine-containing peptide substrates; format: biochemical; details: experiments not described
[2] = system: human taste response to bitter-tasting compounds; experiment: Human taste test: detection threshold of bitter-tasting compounds with and without VMP; format: in vivo; details: 0.3% VMP
Procedure: In the first taste test, the detection threshold for a bitter-tasting compound is determined by having subjects taste a series of solutions containing increasing concentrations of the bitter-tasting compound. None of the subjects are able to taste the bitterness in the first solution containing the lowest concentration of the bitter-tasting molecule. The subjects are instructed to indicate the first, or lowest concentration of solution that is sensed as bitter. This concentration is the detection threshold for that particular compound and subject. […] The detection threshold for the bitter-tasting compound plus inhibitor is likewise determined. All of these aqueous solutions contain 5% sucrose. […] The dilution series are in ^1/2 log increments (i.e., 1 uM, 3.2 uM, 10 uM, 32 uM). The pair of dilution series with and without inhibitor is tasted within a 2 hour time period. Subjects are blinded as to the identity of the bitter compound and whether inhibitor is present or not. The two dilution series are presented in random order. […]

[3] = system: acid phosphatase (EC 3.1.3.2) type V; experiment: Acid phosphatase enzyme kinetics with PNPP substrate; format: biochemical, bovine
Procedure: Enzyme kinetics are done using purified acid phosphatase (EC 3.1.3.2) type V from bovine milk with PNPP as the substrate. The enzyme kinetics experiments are done similarly to the kinetics experiments for alkaline phosphatase, described above.
The buffer is 0.2 M sodium acetate buffer, pH 5.6. Reactions are done in a 96-well microtiter plate. The enzyme reaction is initiated by the addition of enzyme. The enzyme reaction is stopped by the addition of 50 ul of 3 N NaOH to each well. Reaction times are from 0-15 minutes, at 30 second intervals. As described previously, the reaction rate is determined by measurement of the formation of colored product, PNP, which correlates with OD405/490. Acid phosphatase has a linear enzyme reaction rate for 15 minutes with the concentration ranges tested. Calculation of the Ki is done as described above.

With vanillylmonophosphate [VMP] the “effect on taste cell response to denatonium benzoate” value (mud puppy taste cells; inhibitor mixed with denatonium benzoate) was “decreases the taste cell response”, the “effect on taste cell response to dextromethorphan” value (mud puppy taste cells; inhibitor mixed with dextromethorphan) was “decreases the taste cell response” and the “effect on tyrosine phosphatase activity against peptide substrates” value [1] was “inhibits the activity”. The “# VMP did not change threshold” value ([2]; CPC, n 2) was 1, the “# VMP increased threshold” value ([2]; CPC, n 2) was 0 and the “% Subjects that VMP increased threshold” value ([2]; CPC, n 2) was 0.00%. The “# VMP did not change threshold” value ([2]; acetaminophen, n 5) was 3, the “# VMP increased threshold” value ([2]; acetaminophen, n 5) was 2 and the “% Subjects that VMP increased threshold” value ([2]; acetaminophen, n 5) was 40.00%. The “# VMP did not change threshold” value ([2]; caffeine, n 4) was 3, the “# VMP increased threshold” value ([2]; caffeine, n 4) was 0 and the “% Subjects that VMP increased threshold” value ([2]; caffeine, n 4) was 0.00%. For the same substance, the “# VMP did not change threshold” value ([2]; chlorpheniramine maleate, n 5) was 0, the “# VMP increased threshold” value ([2]; chlorpheniramine maleate, n 5) was 4 and the “% Subjects that VMP increased threshold” value ([2]; chlorpheniramine maleate, n 5) was 80.00%. The “# VMP did not change threshold” value ([2]; cimetidine, n 2) was 1, the “# VMP increased threshold” value ([2]; cimetidine, n 2) was 1 and the “% Subjects that VMP increased threshold” value ([2]; cimetidine, n 2) was 50.00%. For the same substance, the “# VMP did not change threshold” value ([2]; denatonium benzoate, n 4) was 2, the “# VMP increased threshold” value ([2]; denatonium benzoate, n 4) was 2 and the “% Subjects that VMP increased threshold” value ([2]; denatonium benzoate, n 4) was 50.00%. The “# VMP did not change threshold” value ([2]; dextromethorphan, n 5) was 4, the “# VMP increased threshold” value ([2]; dextromethorphan, n 5) was 1 and the “% Subjects that VMP increased threshold” value ([2]; dextromethorphan, n 5) was 20.00%. The “# VMP did not change threshold” value ([2]; domiphen bromide, n 4) was 3, the “# VMP increased threshold” value ([2]; domiphen bromide, n 4) was 1 and the “% Subjects that VMP increased threshold” value ([2]; domiphen bromide, n 4) was 25.00%. For the same substance, the “# VMP did not change threshold” value ([2]; doxylamine succinate, n 3) was 1, the “# VMP increased threshold” value ([2]; doxylamine succinate, n 3) was 2 and the “% Subjects that VMP increased threshold” value ([2]; doxylamine succinate, n 3) was 66.67%. The “# VMP did not change threshold” value ([2]; famotidine, n 3) was 3, the “# VMP increased threshold” value ([2]; famotidine, n 3) was 0 and the “% Subjects that VMP increased threshold” value ([2]; famotidine, n 3) was 0.00%. For the same substance, the “# VMP did not change threshold” value ([2]; guaifenesin, n 8) was 2, the “# VMP increased threshold” value ([2]; guaifenesin, n 8) was 2 and the “% Subjects that VMP increased threshold” value ([2]; guaifenesin, n 8) was 25.00%. For the same substance, the “# VMP did not change threshold” value ([2]; phenylpropanolamine, n 7) was 2, the “# VMP increased threshold” value ([2]; phenylpropanolamine, n 7) was 4 and the “% Subjects that VMP increased threshold” value ([2]; phenylpropanolamine, n 7) was 57.14%. For the same substance, the “# VMP did not change threshold” value ([2]; pseudoephedrine, n 5) was 2, the “# VMP increased threshold” value ([2]; pseudoephedrine, n 5) was 2 and the “% Subjects that VMP increased threshold” value ([2]; pseudoephedrine, n 5) was 40.00%. The “# VMP did not change threshold” value ([2]; ranitidine, n 3) was 1, the “# VMP increased threshold” value ([2]; ranitidine, n 3) was 1 and the “% Subjects that VMP increased threshold” value ([2]; ranitidine, n 3) was 33.33%. The “# VMP did not change threshold” value ([2]; sucrose octaacetate, n 7) was 4, the “# VMP increased threshold” value ([2]; sucrose octaacetate, n 7) was 1 and the “% Subjects that VMP increased threshold” value ([2]; sucrose octaacetate, n 7) was 14.29%. For the same substance, the “type of inhibition of acid phosphatase” value ([3]; PNPP substrate) was “competitively inhibited” and the Ki ([3]; PNPP substrate at room temperature, pH 5.6) was 9.16 mM.
